IC50 data for 49 molecules are collected here from patent US8664257B2, “Oxygen-substituted 3-heteroaroylamino-propionic acid derivatives and their use as pharmaceuticals” (Sanofi, priority 2010, dated 2014).

This assay addresses T1, Recombinant human cathepsin A (Homo sapiens, UniProt P10619).
T1 construct: Recombinant human cathepsin A (residues 29-480, with a C-terminal 10-His tag); 10-His (C); purchased R&D Systems 1049-SE
T1 sequence (P10619 29-312 limits assumed): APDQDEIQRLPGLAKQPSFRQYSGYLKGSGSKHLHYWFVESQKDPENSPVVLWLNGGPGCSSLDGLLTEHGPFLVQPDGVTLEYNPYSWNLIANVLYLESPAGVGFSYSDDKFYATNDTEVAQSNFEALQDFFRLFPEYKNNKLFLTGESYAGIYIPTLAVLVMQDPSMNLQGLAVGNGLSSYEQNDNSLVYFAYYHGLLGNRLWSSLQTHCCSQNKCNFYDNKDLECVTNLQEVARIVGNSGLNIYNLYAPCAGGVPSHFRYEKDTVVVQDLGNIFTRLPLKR
T1 sequence (P10619 327-480 limits assumed): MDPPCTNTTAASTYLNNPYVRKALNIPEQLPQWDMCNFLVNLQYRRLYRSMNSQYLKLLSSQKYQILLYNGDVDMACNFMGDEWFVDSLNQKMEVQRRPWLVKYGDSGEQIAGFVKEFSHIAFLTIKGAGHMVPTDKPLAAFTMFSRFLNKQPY
Kind of assay: Cathepsin A inhibitory activity. The format is biochemical. How it is done:
a) Cathepsin A Inhibitory Activity
Recombinant human cathepsin A (residues 29-480, with a C-terminal 10-His tag; R&D Systems, #1049-SE) was proteolytically activated with recombinant human cathepsin L (R&D Systems, #952-CY). Briefly, cathepsin A was incubated at 10 μg/ml with cathepsin L at 1 μg/ml in activation buffer (25 mM 2-(morpholin-4-yl)-ethanesulfonic acid (MES), pH 6.0, containing 5 mM dithiothreitol (DTT)) for 15 min at 37° C. Cathepsin L activity was then stopped by the addition of the cysteine protease inhibitor E-64 (N-(trans-epoxysuccinyl)-L-leucine-4-guanidinobutylamide; Sigma-Aldrich, #E3132; dissolved in activation buffer/DMSO) to a final concentration of 10 μM.
The activated cathepsin A was diluted in assay buffer (25 mM MES, pH 5.5, containing 5 mM DTT) and mixed with the test compound (dissolved in assay buffer containing (v/v) 3% DMSO) or, in the control experiments, with the vehicle in a multiple assay plate. After incubation for 15 min at room temperature, as substrate then bradykinin carrying an N-terminal®Bodipy FL (4,4-difluoro-5,7-dimethyl-4-bora-3a,4a-diaza-s-indacene-3-propionyl) label (JPT Peptide Technologies GmbH; dissolved in assay buffer) was added to the mixture. The final concentration of cathepsin A was 833 ng/ml and the final concentration of labeled bradykinin 2 μM. After incubation for 15 min at room temperature the reaction was stopped by the addition of stop buffer (130 mM 2-(4-(2-hydroxy-ethyl)-piperazin-1-yl)-ethanesulfonic acid, pH 7.4, containing (v/v) 0.013% Triton X-100, 0.13% Coating Reagent 3 (Caliper Life Sciences), 6.5% DMSO and 20 μM ebelactone B (Sigma, # E0886)).
Uncleaved substrate and product were then separated by a microfluidic capillary electrophoresis on a LabChip® 3000 Drug Discovery System (12-Sipper-Chip; Caliper Life Sciences) and quantified by determination of the respective peak areas. Substrate turnover was calculated by dividing product peak area by the sum of substrate and product peak areas, and the enzyme activity and the inhibitory effect of the test compound thus quantified. From the percentage of inhibition of cathepsin A activity observed with the test compound at several concentrations, the inhibitory concentration IC50, i.e. the concentration which effects 50% inhibition of enzyme activity was, calculated.

The mark [1] stands for this setting: read-out: Activity (2): Cathepsin A inhibitory activity, IC50 class.
Where [2] appears, read: recombinant human cathepsin A 833 ng/ml, Bodipy FL-labeled bradykinin 2 μM, pH 5.5, read-out: CATH-A IC50.
[3] abbreviates: pharmacological test "Cathepsin A inhibitory activity", IC50 given as class A/B/C, read-out: Activity (2): Cathepsin A inhibitory activity, IC50 class.

Where two headings read alike, the source gives them in different places.

As to `O=C(O)C[C@H](NC(=O)c1cc(O)n(-c2ccccc2)n1)c1ccc(C(F)(F)F)cc1` [Example 99], the IC50 under setting [1] lay in the range of 0.1 to 1 µM.
The same measure, in the same setting: under `COc1ccccc1[C@H](CC(=O)O)NC(=O)c1cc(O)n(-c2ccccc2)n1` [Example 100] stands 0.1 to 1 µM; under `N#Cc1ccc([C@H](CC(=O)O)NC(=O)c2cc(O)n(-c3ccccc3)n2)cc1` [Example 101], 0.1 to 1 µM; under `O=C(O)CC(NC(=O)c1cc(O)n(-c2ccccc2)n1)c1ccc(Oc2ccccc2)cc1` (stereo not drawn) [Example 102], 0.1 to 1 µM.
For the molecule `O=C(O)C[C@H](NC(=O)c1cc(O)n(-c2ccccc2)n1)c1c(F)cccc1F` [Example 103], the IC50 under setting [1] lay within 0.1 to 1 µM.
Take `O=C(O)CC(NC(=O)c1cc(O)n(-c2ccccc2)n1)c1ccc(-c2ccc(F)cc2)cc1` (stereo not drawn) [Example 104]: the IC50 under setting [1] lay in the range of 0.1 to 1 µM.
Consider `O=C(O)CC(NC(=O)c1cc(O)n(-c2ccccc2)n1)c1ccc(-n2ccnc2)cc1` (stereo not drawn) [Example 105], for which, under setting [1], the IC50 fell in the range of 1 to 30 µM.
Still for that read-out and setting: under `O=C(O)C[C@H](NC(=O)c1cc(O)n(-c2ccccc2Cl)n1)c1ccc(Cl)cc1Cl` [Example 106] stands 0.1 to 1 µM; under `O=C(O)C[C@H](NC(=O)c1cc(O)n(-c2ccccc2Cl)n1)c1ccccc1F` [Example 107], 0.1 to 1 µM; under `O=C(O)C[C@H](NC(=O)c1cc(O)n(-c2ccccc2Cl)n1)c1ccccc1C(F)(F)F` [Example 108], 0.1 to 1 µM.
With `O=C(O)C[C@H](NC(=O)c1cc(O)n(-c2ccccc2Cl)n1)c1ccc(Cl)cc1` [Example 109], under setting [1], the IC50 is 0.1 to 1 µM.
Turning to `O=C(O)C[C@H](NC(=O)c1cc(O)n(-c2ccccc2Cl)n1)c1ccc(C(F)(F)F)cc1` [Example 110], the IC50 under setting [1] was in the range of 0.1 to 1 µM.
Regarding `COc1ccccc1[C@H](CC(=O)O)NC(=O)c1cc(O)n(-c2ccccc2Cl)n1` [Example 111], the concentration for half-maximal inhibition (IC50) under setting [1] is 0.1 to 1 µM.
In the case of `N#Cc1ccc([C@H](CC(=O)O)NC(=O)c2cc(O)n(-c3ccccc3Cl)n2)cc1` [Example 112], the IC50 under setting [1] was in the range of 0.1 to 1 µM.
The same measure, in the same setting: under `O=C(O)CC(NC(=O)c1cc(O)n(-c2ccccc2Cl)n1)c1ccc(Oc2ccccc2)cc1` (stereo not drawn) [Example 113] stands 0.1 to 1 µM.
For the molecule `O=C(O)C[C@H](NC(=O)c1cc(O)n(-c2ccccc2Cl)n1)c1c(F)cccc1F` [Example 114], under setting [1], the IC50 was 0.1 to 1 µM.
As for `O=C(O)CC(NC(=O)c1cc(O)n(-c2ccccc2Cl)n1)c1ccc(-c2ccc(F)cc2)cc1` (stereo not drawn) [Example 115], the IC50 under setting [1] was below 0.1 µM.
`O=C(O)CC(NC(=O)c1cc(O)n(-c2ccccc2Cl)n1)c1ccc(-n2ccnc2)cc1` (stereo not drawn) [Example 116]: the IC50 under setting [1] was in the range of 1 to 30 µM.
Still for that read-out and setting: under `O=C(O)C[C@H](NC(=O)c1cc(O)n(-c2ccccc2F)n1)c1ccc(Cl)cc1Cl` [Example 117] stands 0.1 to 1 µM; under `O=C(O)C[C@H](NC(=O)c1cc(O)n(-c2ccccc2F)n1)c1ccccc1F` [Example 118], 0.1 to 1 µM; under `O=C(O)C[C@H](NC(=O)c1cc(O)n(-c2ccccc2F)n1)c1ccccc1C(F)(F)F` [Example 119], 0.1 to 1 µM.
The same measure, in the same setting: under `O=C(O)C[C@H](NC(=O)c1cc(O)n(-c2ccccc2F)n1)c1ccc(Cl)cc1` [Example 120] stands 0.1 to 1 µM; under `O=C(O)C[C@H](NC(=O)c1cc(O)n(-c2ccccc2F)n1)c1ccc(C(F)(F)F)cc1` [Example 121], 0.1 to 1 µM.
On the same count and under the same terms, under `COc1ccccc1[C@H](CC(=O)O)NC(=O)c1cc(O)n(-c2ccccc2F)n1` [Example 122] stands 0.1 to 1 µM.
`N#Cc1ccc([C@H](CC(=O)O)NC(=O)c2cc(O)n(-c3ccccc3F)n2)cc1` [Example 123]: the IC50 under setting [1] is 0.1 to 1 µM.
The same measure, in the same setting: under `O=C(O)CC(NC(=O)c1cc(O)n(-c2ccccc2F)n1)c1ccc(Oc2ccccc2)cc1` (stereo not drawn) [Example 124] stands 0.1 to 1 µM; under `O=C(O)C[C@H](NC(=O)c1cc(O)n(-c2ccccc2F)n1)c1c(F)cccc1F` [Example 125], 0.1 to 1 µM; under `O=C(O)CC(NC(=O)c1cc(O)n(-c2ccccc2F)n1)c1ccc(-c2ccc(F)cc2)cc1` (stereo not drawn) [Example 126], below 0.1 µM.
On the same count and under the same terms, under `O=C(O)CC(NC(=O)c1cc(O)n(-c2ccccc2F)n1)c1ccc(-n2ccnc2)cc1` (stereo not drawn) [Example 127] stands 1 to 30 µM.
For the molecule `COc1cc(C(=O)N[C@@H](CC(=O)O)c2ccccc2C)nn1-c1ccccc1F` [Example 129, (S)-3-{[1-(2-Fluoro-phenyl)-5-methoxy-1H-pyrazole-3-carbonyl]-amino}-3-o-tolyl-propionic acid], the IC50 under setting [1] was below 0.1 µM and the IC50 under setting [2] came out at 0.0412 µM.
As to `Cc1ccccc1[C@H](CC(=O)O)NC(=O)c1cc(O)n(-c2ccc(Cl)cn2)n1` [Example 130], the IC50 under setting [1] lay in the range of 1 to 30 µM.
Still for that read-out and setting: under `Cc1ccccc1[C@H](CC(=O)O)NC(=O)c1cc(O)n(-c2ccnc(Cl)c2)n1` [Example 131] stands 0.1 to 1 µM; under `COc1ccc(C(CC(=O)O)NC(=O)c2cc(O)n(-c3ccccc3Cl)n2)c(F)c1` (stereo not drawn) [Example 132], 0.1 to 1 µM; under `COc1ccc(C(CC(=O)O)NC(=O)c2cc(O)n(-c3ccccc3F)n2)c(F)c1` (stereo not drawn) [Example 133], 0.1 to 1 µM.
Still for that read-out and setting: under `CCc1ccc(C(CC(=O)O)NC(=O)c2cc(O)n(-c3ccccc3F)n2)cc1` (stereo not drawn) [Example 134] stands 0.1 to 1 µM.
As for `Cc1ccc([C@H](CC(=O)O)NC(=O)c2cc(O)n(-c3ccccc3Cl)n2)cc1` [Example 135, (S)-3-{[1-(2-Chloro-phenyl)-5-hydroxy-1H-pyrazole-3-carbonyl]-amino}-3-p-tolyl-propionic acid], the IC50 is 0.1 to 1 µM under setting [1] and 0.211 µM under setting [2].
On to `COc1ccc([C@H](CC(=O)O)NC(=O)c2cc(O)n(-c3ccccc3F)n2)cn1` [Example 136], for which, under setting [1], the IC50 was in the range of 0.1 to 1 µM.
As to `O=C(O)C[C@H](NC(=O)c1cc(O)n(-c2ccccc2)n1)c1cccnc1` [Example 137], the IC50 under setting [1] is 0.1 to 1 µM.
On to `Cc1ccccc1[C@H](CC(=O)O)NC(=O)c1cc(O)n(-c2nccc(C(F)(F)F)n2)n1` [Example 138], for which the IC50 under setting [3] is 1 to 30 µM.
Same read-out and setting: under `COc1ccc([C@H](CC(=O)O)NC(=O)c2cc(O)n(-c3ccccc3Cl)n2)cn1` [Example 139] stands 0.1 to 1 µM.
`O=C(O)C[C@H](NC(=O)c1cc(O)n(-c2ccccc2F)n1)c1cccnc1` [Example 140]: the IC50 under setting [3] lay within 0.1 to 1 µM.
Regarding `Cc1ccccc1[C@H](CC(=O)O)NC(=O)c1cc(O)n(-c2ccncc2)n1` [Example 141], the IC50 under setting [3] lay in the range of 1 to 30 µM.
Same read-out and setting: under `Cc1cc(F)ccc1C(CC(=O)O)NC(=O)c1cc(O)n(-c2ccccc2Cl)n1` (stereo not drawn) [Example 142] stands 0.1 to 1 µM; under `Cc1ccccc1[C@H](CC(=O)O)NC(=O)c1cc(O)n(-c2cccnc2)n1` [Example 143], 1 to 30 µM; under `COc1ccc([C@H](CC(=O)O)NC(=O)c2cc(O)n(-c3ccccc3)n2)cn1` [Example 144], 0.1 to 1 µM.
The same measure, in the same setting: under `O=C(O)C[C@H](NC(=O)c1cc(O)n(-c2ccccc2Cl)n1)c1cccnc1` [Example 145] stands 0.1 to 1 µM.
As to `O=C(O)C[C@H](NC(=O)c1cc(O)n(-c2ccccc2F)n1)c1ccc(-c2ccc(F)cc2)cc1` [Example 146], the IC50 under setting [3] fell in the range of 1 to 30 µM.
Same read-out and setting: under `O=C(O)C[C@@H](NC(=O)c1cc(O)n(-c2ccccc2F)n1)c1ccc(-c2ccc(F)cc2)cc1` [Example 147] stands below 0.1 µM; under `O=C(O)C[C@H](NC(=O)c1cc(O)n(-c2ccccc2Cl)n1)c1ccc(-c2ccc(F)cc2)cc1` [Example 148], 1 to 30 µM.

The term IC50 denotes the concentration at which inhibition is half-maximal.
